ChEMBL document CHEMBL4414672, “Synthesis of certain benzothieno[3,2-d]pyrimidine derivatives as a selective SIRT2 inhibitors” (Eur J Med Chem, 2020)

Columns and labels:
Assay type in all cases: functional
CCRF-CEM = assay: Growth inhibition of human CCRF-CEM cells at 10^-5 M incubated for 48 hrs by sulforhodamine B assay; settings: read-out: GI
HL-60(TB) = assay: Growth inhibition of human HL-60(TB) cells at 10^-5 M incubated for 48 hrs by sulforhodamine B assay; settings: HL-60, 48 h, read-out: GI
K562 = assay: Growth inhibition of human K562 cells at 10^-5 M incubated for 48 hrs by sulforhodamine B assay; settings: K562, 48 h, read-out: GI
EKVX = assay: Growth inhibition of human EKVX cells at 10^-5 M incubated for 48 hrs by sulforhodamine B assay; settings: read-out: GI
HOP-62 = assay: Growth inhibition of human HOP62 cells at 10^-5 M incubated for 48 hrs by sulforhodamine B assay; settings: HOP-62, 48 h, read-out: GI
HOP-92 = assay: Growth inhibition of human HOP92 cells at 10^-5 M incubated for 48 hrs by sulforhodamine B assay; settings: HOP-92, 48 h, read-out: GI
NCI-H23 = assay: Growth inhibition of human NCI-H23 cells at 10^-5 M incubated for 48 hrs by sulforhodamine B assay; settings: NCI-H23, 48 h, read-out: GI
NCI-H460 = assay: Growth inhibition of human NCI-H460 cells at 10^-5 M incubated for 48 hrs by sulforhodamine B assay; settings: NCI-H460, 48 h, read-out: GI
NCI-H522 = assay: Growth inhibition of human NCI-H522 cells at 10^-5 M incubated for 48 hrs by sulforhodamine B assay; settings: NCI-H522, 48 h, read-out: GI
HCT-116 = assay: Growth inhibition of human HCT116 cells at 10^-5 M incubated for 48 hrs by sulforhodamine B assay; settings: HCT-116, 48 h, read-out: GI
HT-29 = assay: Growth inhibition of human HT-29 cells at 10^-5 M incubated for 48 hrs by sulforhodamine B assay; settings: HT-29, 48 h, read-out: GI
KM12 = assay: Growth inhibition of human KM12 cells at 10^-5 M incubated for 48 hrs by sulforhodamine B assay; settings: KM12, 48 h, read-out: GI
SF-268 = assay: Growth inhibition of human SF268 cells at 10^-5 M incubated for 48 hrs by sulforhodamine B assay; settings: SF-268, 48 h, read-out: GI
SF-295 = assay: Growth inhibition of human SF295 cells at 10^-5 M incubated for 48 hrs by sulforhodamine B assay; settings: SF-295, 48 h, read-out: GI
SF-539 = assay: Growth inhibition of human SF539 cells at 10^-5 M incubated for 48 hrs by sulforhodamine B assay; settings: SF-539, 48 h, read-out: GI
SNB-19 = assay: Growth inhibition of human SNB19 cells at 10^-5 M incubated for 48 hrs by sulforhodamine B assay; settings: SNB-19, 48 h, read-out: GI
LOX IMVI = assay: Growth inhibition of human LOXIMVI cells at 10^-5 M incubated for 48 hrs by sulforhodamine B assay; settings: read-out: GI
Malme-3M = assay: Growth inhibition of human MALME-3M cells at 10^-5 M incubated for 48 hrs by sulforhodamine B assay; settings: read-out: GI
M14 = assay: Growth inhibition of human M14 cells at 10^-5 M incubated for 48 hrs by sulforhodamine B assay; settings: M14, 48 h, read-out: GI
MDA-MB-435 = assay: Growth inhibition of human MDA-MB-435 cells at 10^-5 M incubated for 48 hrs by sulforhodamine B assay; settings: MDA-MB-435, 48 h, read-out: GI
SK-MEL-2 = assay: Growth inhibition of human SK-MEL-2 cells at 10^-5 M incubated for 48 hrs by sulforhodamine B assay; settings: SK-MEL-2, 48 h, read-out: GI
SK-MEL-28 = assay: Growth inhibition of human SK-MEL-28 cells at 10^-5 M incubated for 48 hrs by sulforhodamine B assay; settings: SK-MEL-28, 48 h, read-out: GI
UACC-257 = assay: Growth inhibition of human UACC257 cells at 10^-5 M incubated for 48 hrs by sulforhodamine B assay; settings: UACC-257, 48 h, read-out: GI
UACC-62 = assay: Growth inhibition of human UACC62 cells at 10^-5 M incubated for 48 hrs by sulforhodamine B assay; settings: UACC-62, 48 h, read-out: GI
IGROV-1 = assay: Growth inhibition of human IGROV1 cells at 10^-5 M incubated for 48 hrs by sulforhodamine B assay; settings: IGROV-1, 48 h, read-out: GI
OVCAR-4 = assay: Growth inhibition of human OVCAR4 cells at 10^-5 M incubated for 48 hrs by sulforhodamine B assay; settings: OVCAR-4, 48 h, read-out: GI
OVCAR-5 = assay: Growth inhibition of human OVCAR5 cells at 10^-5 M incubated for 48 hrs by sulforhodamine B assay; settings: OVCAR-5, 48 h, read-out: GI
OVCAR-8 = assay: Growth inhibition of human OVCAR8 cells at 10^-5 M incubated for 48 hrs by sulforhodamine B assay; settings: OVCAR-8, 48 h, read-out: GI
SK-OV-3 = assay: Growth inhibition of human SKOV3 cells at 10^-5 M incubated for 48 hrs by sulforhodamine B assay; settings: SK-OV-3, 48 h, read-out: GI
786-0 = assay: Growth inhibition of human 786-0 cells at 10^-5 M incubated for 48 hrs by sulforhodamine B assay; settings: 786-0, 48 h, read-out: GI
A498 = assay: Growth inhibition of human A498 cells at 10^-5 M incubated for 48 hrs by sulforhodamine B assay; settings: A498, 48 h, read-out: GI
ACHN = assay: Growth inhibition of human ACHN cells at 10^-5 M incubated for 48 hrs by sulforhodamine B assay; settings: read-out: GI
SN12C = assay: Growth inhibition of human SN12C cells at 10^-5 M incubated for 48 hrs by sulforhodamine B assay; settings: read-out: GI
TK-10 = assay: Growth inhibition of human TK10 cells at 10^-5 M incubated for 48 hrs by sulforhodamine B assay; settings: TK-10, 48 h, read-out: GI
UO-31 = assay: Growth inhibition of human UO31 cells at 10^-5 M incubated for 48 hrs by sulforhodamine B assay; settings: UO-31, 48 h, read-out: GI
PC-3 = assay: Growth inhibition of human PC3 cells at 10^-5 M incubated for 48 hrs by sulforhodamine B assay; settings: PC-3, 48 h, read-out: GI
DU-145 = assay: Growth inhibition of human DU145 cells at 10^-5 M incubated for 48 hrs by sulforhodamine B assay; settings: DU-145, 48 h, read-out: GI
MCF7 = assay: Growth inhibition of human MCF7 cells at 10^-5 M incubated for 48 hrs by sulforhodamine B assay; settings: MCF7, 48 h, read-out: GI
Hs-578T = assay: Growth inhibition of human Hs 578T cells at 10^-5 M incubated for 48 hrs by sulforhodamine B assay; settings: read-out: GI

O=[N+]([O-])c1cccc(C2c3sc4ccc(Cl)cc4c3N=C3NN=NN32)c1 (stereo not drawn)
inhibition of growth at 10 µM (CCRF-CEM): -11.4%
inhibition of growth at 10 µM (HL-60(TB)): -9.93%
inhibition of growth at 10 µM (K562): -7.43%
inhibition of growth at 10 µM (EKVX): 8.75%
inhibition of growth at 10 µM (HOP-62): 0.43%
inhibition of growth at 10 µM (HOP-92): 12.8%
inhibition of growth at 10 µM (NCI-H23): 1.39%
inhibition of growth at 10 µM (NCI-H460): 6.19%
inhibition of growth at 10 µM (NCI-H522): -7.9%
inhibition of growth at 10 µM (HCT-116): -7.64%
inhibition of growth at 10 µM (HT-29): -2.76%
inhibition of growth at 10 µM (KM12): -1.99%
inhibition of growth at 10 µM (SF-268): -8.1%
inhibition of growth at 10 µM (SF-295): 3.68%
inhibition of growth at 10 µM (SF-539): -8.51%
inhibition of growth at 10 µM (SNB-19): 7.13%
inhibition of growth at 10 µM (LOX IMVI): -0.19%
inhibition of growth at 10 µM (Malme-3M): -4.76%
inhibition of growth at 10 µM (M14): -10.9%
inhibition of growth at 10 µM (MDA-MB-435): 2.65%
inhibition of growth at 10 µM (SK-MEL-2): -23%
inhibition of growth at 10 µM (SK-MEL-28): 3.38%
inhibition of growth at 10 µM (UACC-257): 3.87%
inhibition of growth at 10 µM (UACC-62): 21.3%
inhibition of growth at 10 µM (IGROV-1): -11.1%
inhibition of growth at 10 µM (OVCAR-4): -6.3%
inhibition of growth at 10 µM (OVCAR-5): -6.97%
inhibition of growth at 10 µM (OVCAR-8): -4.72%
inhibition of growth at 10 µM (SK-OV-3): 6.39%
inhibition of growth at 10 µM (786-0): 9.33%
inhibition of growth at 10 µM (A498): 18.1%
inhibition of growth at 10 µM (ACHN): -27.8%
inhibition of growth at 10 µM (SN12C): 9.98%
inhibition of growth at 10 µM (TK-10): 35.8%
inhibition of growth at 10 µM (UO-31): 14.5%
inhibition of growth at 10 µM (PC-3): -11.3%
inhibition of growth at 10 µM (DU-145): 22%
inhibition of growth at 10 µM (MCF7): 15.4%
inhibition of growth at 10 µM (Hs-578T): -11.2%

O=[N+]([O-])c1cccc(C2NC(N3CCOCC3)=Nc3c2sc2ccc(Cl)cc32)c1 (stereo not drawn)
inhibition of growth at 10 µM (CCRF-CEM): -3.36%
inhibition of growth at 10 µM (HL-60(TB)): -10.4%
inhibition of growth at 10 µM (K562): -3.76%
inhibition of growth at 10 µM (EKVX): 16.4%
inhibition of growth at 10 µM (HOP-62): 9.52%
inhibition of growth at 10 µM (HOP-92): 10.1%
inhibition of growth at 10 µM (NCI-H23): 13.4%
inhibition of growth at 10 µM (NCI-H460): 4.82%
inhibition of growth at 10 µM (NCI-H522): 3.46%
inhibition of growth at 10 µM (HCT-116): 6.8%
inhibition of growth at 10 µM (HT-29): -2.72%
inhibition of growth at 10 µM (KM12): 4.2%
inhibition of growth at 10 µM (SF-268): 3.84%
inhibition of growth at 10 µM (SF-295): -4.89%
inhibition of growth at 10 µM (SF-539): 6.94%
inhibition of growth at 10 µM (SNB-19): 2.54%
inhibition of growth at 10 µM (LOX IMVI): 3.74%
inhibition of growth at 10 µM (Malme-3M): 4.08%
inhibition of growth at 10 µM (M14): -1.17%
inhibition of growth at 10 µM (MDA-MB-435): -6.59%
inhibition of growth at 10 µM (SK-MEL-2): -1.1%
inhibition of growth at 10 µM (SK-MEL-28): -22.1%
inhibition of growth at 10 µM (UACC-257): -6.32%
inhibition of growth at 10 µM (UACC-62): 8.77%
inhibition of growth at 10 µM (IGROV-1): 25%
inhibition of growth at 10 µM (OVCAR-4): 1.77%
inhibition of growth at 10 µM (OVCAR-5): -1.26%
inhibition of growth at 10 µM (OVCAR-8): -3%
inhibition of growth at 10 µM (SK-OV-3): -6.18%
inhibition of growth at 10 µM (786-0): -5.37%
inhibition of growth at 10 µM (A498): 1.88%
inhibition of growth at 10 µM (ACHN): 10.4%
inhibition of growth at 10 µM (SN12C): 3.85%
inhibition of growth at 10 µM (TK-10): -10.7%
inhibition of growth at 10 µM (UO-31): 41.8%
inhibition of growth at 10 µM (PC-3): 23%
inhibition of growth at 10 µM (DU-145): -13.7%
inhibition of growth at 10 µM (MCF7): 23.1%
inhibition of growth at 10 µM (Hs-578T): 1.47%
